# Data taken from paper PMC5554537 (Frontiers in Pharmacology, 2017).
# Like-named read-outs stand apart in the source and are kept apart here.
# Experiments:
# [1] = Metabolite profile in plasma, liver and HT29 tumor after i.p. SN30000; format: in vivo, NIH-III mice; conditions: SN30000 186 mg/kg i.p.; for Metabolite/SN30000 peak area, Tumor: HT29 tumor
# Protocol: Mouse plasma and tissue homogenates, prepared from tissue samples in two volumes of ice-cold PBS using a TissueLyser II (Qiagen Sciences, Germantown, MD, United States) with 30 Hz oscillation frequency for 1 min, were processed by precipitating proteins with 3 vol MeOH and centrifuging (13,000 g, 4°C for 10 min). Supernatants were diluted into 3 vol water and analyzed with an Agilent model 6460 LC-MS/MS with an in-line photodiode array absorbance detector. Chromatographic separation was performed on a Zorbax Eclipse C18 column (100 mm × 3.0 mm, 1.8 μm; Agilent Technologies) at 35°C with a flow rate of 0.6 mL/min, with positive or negative mode electrospray ionization. The mobile phase was a gradient constructed using 80% MeCN/20% water/0.1% formic acid v/v/v (A) and 0.1% formic acid in water (B) from 10% A to 80% A with a total run time of […]. The gradient profile was: 0–4 min, 10% A; 4–11 min linear increase to 60% A; 11–12 min to 80% A; held for 1 min, returned to 10% A over 0.5 min and held for 2 min before the next sample injection. Absorbance spectra were collected from 230 to 600 nm with a reference wavelength of 550 nm. The mass/charge (m/z) ratio was scanned from 100 to 800 with a fragmentor voltage of 120 V. MS^2 with various collision energies was used for further characterization of some metabolites.
# Metabolites were investigated in plasma, liver and HT29 tumors following i.p. dosing of female NIH-III mice with SN30000 at 186 mg/kg, which represents its previously determined MTD for this route and mouse strain ([Gu et al., 2014]). Representative chromatograms are shown in Supplementary Figure 1. A total of 19 metabolites (M1–M19) were provisionally identified (Figure 1 and Table 1). Assignments were confirmed by comparison with synthetic standards in the case of the 1-oxide M14 and nor-oxide M13, which have previously been reported as murine metabolites of SN30000 ([Wang et al., 2012]) and for M15 which is known to be the major photodegradation product of SN30000 ([Gu et al., 2014]). In addition, the previously unreported metabolite M18, which is the main plasma metabolite at late times, was isolated from pooled plasma of mice dosed with M14 in sufficient quantity for characterization by NMR (Supplementary Data). This identified M18 as an oxidation product of M14 with an alkanoic acid side-chain (Figure 1), an assignment that was confirmed by synthesis of the authentic compound which was identical by HPLC retention time, absorbance spectrum, elemental analysis, mass spectrum and NMR spectroscopy.
# [2] = Compartmental plasma PK model; format: in vivo
# Text: This model, shown schematically in Figure 9, is based on total (free + bound) plasma concentrations; the major metabolites (M14, M13, and M18) are explicit and clearance of SN30000 occurs only by reduction to M14. The i.p. bioavailability of SN30000 was modeled with an additional term for loss from the peritoneal compartment (kloss).
# in vivo = conditions: female, NIH-III nude, mouse, plasma, ip
# Protocol: SN30000, M14 and M18 dosing solutions were prepared fresh in normal saline, filtered through 0.45 μm Acrodisc filters (Pall Life Sciences, Port Washington, NY, United States), protected from light in amber vials, and used within 3 h. Doses are expressed as mg of free base equivalent for SN30000 and M14, and free acid in the case of M18. […] Blood samples were collected from mice at various times by cardiac puncture, seconds after cervical dislocation, into ice-cold tubes containing K2EDTA. These were placed on ice immediately after collection and centrifuged (3,000 g, 3 min) within 10 min to harvest plasma. Plasma and tissues were rapidly frozen in liquid nitrogen before storage at -80°C for subsequent bioanalysis.
# Non-compartmental parameters of 3H-mannitol for the data
# shown in Figure 9 where female NIH-III nude mice were dosed with 3H-mannitol at
# from mannitol concentrations as described in Methods for SN30000 and its metabolites.
# Co-administered with Administered 16hr
# NIH-III mice [3] = assay: Mouse toxicity: MTD, survival and body weight loss after single i.p. doses; format: in vivo; conditions: i.p., NIH-III mice, as stated for the temperature study (Figure 4)
# Text: Mouse toxicity SN30000 and metabolites M14 and M18: survival and body weight loss following single i.p. doses to NIH-III mice.
# Cmpd Dose Body weight nadir Body weight nadir
# (µmol/kg) Survivala Survivala
# Day Weight loss (%)b Day Weight loss (%)b […]
# a Survival reported as a fraction of total nu mber of animal treated at a giv en dose, with an observation time of 14 days. Deaths were predominantly due to humane ter mination because of persistent clinical signs or body weight loss > 15% of pretreatment values. b Body weig ht loss at nadir, relative to pre-treatment values. Values are mean and errors are […]
# c Data from Gu et al., 2014 d Mouse died <24 hr after dosing.
# NIH-III mice [4] = assay: Core body (rectal) temperature and acute clinical signs after dosing; format: in vivo
# Protocol: Supplementary Figure 3. Initial rates of core temperature decrease in (untreated) NIH-III mice post- mortem: co mparison with initial temperature change ante- mortem following treatment with benzotriazine oxides at their MTD. Temperature was measured in rectu m and liver over 15 min. Initial rates of temperature loss (°C/min) were: post- mortem (rectum):
# (rectum) 0.33. The rectal temperature loss following dosing with M14 (135 mg/kg) was 0.6 °C/min (not shown for clarity). The drug-induced changes are redrawn from Fig. 4.
# SiHa cells = assay: Oxygen consumption rate, Seahorse XFe96 analyser; format: cell-based, human; conditions: 200 µM, mitochondrial stress test
# Protocol: (OCR) of the human cervical carcinoma cell line SiHa and a previously described (Guise et al., 2007) POR-overexpressing transfectant SiHa/POR, determined using a Seahorse XFe96 Analyser (Agilent). Cells were passaged in αMEM plus 5% FCS, with 1 µM puromycin to maintain POR expression in the SiHa/POR cell line. Cells were ty pically seeded at 4×10^4 cells/well in Seahorse 96 well plates (without puromycin) and ~ 18 hr later the medium was changed to Seahorse medium with 10 mM glucose and 2 mM glutamine (SMGG) adjusted to pH 7.35 (150 µl/well). Plates were degassed to remove CO2, and inhibitors were added serially using the Seahorse injectors (25 µl/injection) with rotenone (final concentration 0.5 µM) typically added at the start of the 30 min equilibration in the flux analyser. OCR was monitored for three 3 min periods following each drug addition. […]
# injection 1 and at each subsequent injection to maintain concentrations at 200 µM continuously during the test. The control received equivalent injections of SMGG without drugs. In all cases (including controls), injection 2 added oligomycin to give 0.5 µM, injection 3 added carbonyl cyanide […] (FCCP) to 0.5 µM, and injection 4 added rotenone and antimy cin to 1 µM each. V alues are means and errors are standard deviations, for 6 replicate cultures. […]
# suppressed by M14, both in the presence (injection 1) and absence (injection 4) of respiratory […]
# presence or absence of 0.5 µM rotenone when SN30000 is added cumulatively to give the indicated concentrations. Values are means and SEM for 5 replicate cultures. The fall in OCR after transient stimulation at each addition of SN30000 is consistent with the pattern for CHO/POR cells in Supplementary Fig. 4A.
# C: Concentration dependence of increases in OCR by SiHa/POR cells, measured at the first […]
# effects noted above. Left panel: SN30000. Right panel: TPZ. Values are means and errors are […]
# [5] = administered 16hr after SN30000 0 mg/kg
# [6] = at the highest i.p. dose of co-administered SN30000
# [7] = co-administered with SN30000 18.6 mg/kg i.p.
# [8] = co-administered with SN30000 92.8 mg/kg i.p.
# [9] = co-administered with SN30000 186 mg/kg i.p.
compound,measurement,setting,value
[O-][n+]1nc(CCCN2CCOCC2)nc2cc3c(cc21)CC=C3 [M5],"Metabolite/SN30000 peak area, Tumor",[1],0.04
same,"Metabolite/SN30000 peak area, Liver",[1],0.64
same,"Metabolite/SN30000 peak area, Plasma",[1],0.05
[O-][n+]1nc(CCCNCCO)[n+]([O-])c2cc3c(cc21)CCC3 [M7],"Metabolite/SN30000 peak area, Tumor",[1],0.06
same,"Metabolite/SN30000 peak area, Liver",[1],0.17
same,"Metabolite/SN30000 peak area, Plasma",[1],0.06
OCCNCCCc1nnc2cc3c(cc2n1)CCC3 [M11],"Metabolite/SN30000 peak area, Tumor",[1],0.06
same,"Metabolite/SN30000 peak area, Liver",[1],0.34
same,"Metabolite/SN30000 peak area, Plasma",[1],0.04
[O-][n+]1nc(CCCNCCO)nc2cc3c(cc21)CCC3 [M12],"Metabolite/SN30000 peak area, Tumor",[1],0.16
same,"Metabolite/SN30000 peak area, Liver",[1],1.06
same,"Metabolite/SN30000 peak area, Plasma",[1],0.13
[O-][n+]1nc(CCC[N+]2([O-])CCOCC2)nc2cc3c(cc21)CCC3 [M15],"Metabolite/SN30000 peak area, Tumor",[1],0.24
same,"Metabolite/SN30000 peak area, Liver",[1],0.21
same,"Metabolite/SN30000 peak area, Plasma",[1],0.26
O=C(O)CCc1n[n+]([O-])c2cc3c(cc2[n+]1[O-])CCC3 [M16],"Metabolite/SN30000 peak area, Tumor",[1],0.49
same,"Metabolite/SN30000 peak area, Liver",[1],0.34
same,"Metabolite/SN30000 peak area, Plasma",[1],0.50
O=C(O)CCc1nnc2cc3c(cc2n1)CCC3 [M17],"Metabolite/SN30000 peak area, Tumor",[1],0.14
same,"Metabolite/SN30000 peak area, Liver",[1],0.12
same,"Metabolite/SN30000 peak area, Plasma",[1],0.11
O=C1COCCN1CCCc1nc2cc3c(cc2[n+]([O-])n1)CCC3 [M19],"Metabolite/SN30000 peak area, Tumor",[1],0.02
same,"Metabolite/SN30000 peak area, Liver",[1],0.27
same,"Metabolite/SN30000 peak area, Plasma",[1],0.03
"OC[C@@H](O)[C@@H](O)[C@H](O)[C@H](O)CO [Mannitol, mannitol]",Central compartment volume V1,[2]; 1-Oxide and Nor-oxide values fixed,0.39 L/kg
same,Approximate % suppression per °C of CL,"[2]; NIH-III, mouse, in vivo",~24%
same,clearance,"[2]; NIH-III, mouse, plasma, other: i.p. and i.v. datasets fitted simultaneously, model clearance of the compound, read-out: CL (converted)",19.5 mL/min/kg
same,Vd,"[2]; NIH-III, mouse, plasma, other: i.p. and i.v. datasets fitted simultaneously, read-out: Steady state volume VSS",0.39 L/kg
same,AUC,3H-mannitol 25 µmol/kg co-administered with SN30000 1.86 mg/kg i.p.,16.1 µM.hr/L
same,AUC,[5],17.5 µM.hr/L
same,AUC,administered 16hr after SN30000 18.6 mg/kg i.p.,19.6 µM.hr/L
same,AUC,administered 16hr after SN30000 186 mg/kg i.p.,20.4 µM.hr/L
same,Increase in AUC,[6],3 fold
same,Increase in plasma half-life,[6],~2 fold
same,AUC,[7],17.9 µM.hr/L
same,AUC,[8],36.2 µM.hr/L
same,AUC,[9],44.5 µM.hr/L
same,Cmax,"in vivo; 18.6 mg/kg, administered 16hr after SN30000 18.6 mg/kg i.p.",36.9 µM
same,half-life,"in vivo; 18.6 mg/kg, T1/2, administered 16hr after SN30000 18.6 mg/kg i.p.",21 min
same,Cmax,"in vivo; 186 mg/kg, administered 16hr after SN30000 186 mg/kg i.p.",33.2 µM
same,half-life,"in vivo; 186 mg/kg, T1/2, administered 16hr after SN30000 186 mg/kg i.p.",23.2 min
same,Cmax,in vivo; [5],31.7 µM
same,Cmax,in vivo; co-administered with SN30000 1.86 mg/kg i.p.,41.2 µM
same,Cmax,in vivo; [7],43.5 µM
same,Cmax,in vivo; [8],52.3 µM
same,Cmax,in vivo; [9],51 µM
same,half-life,"in vivo; T1/2, administered 16hr after SN30000 0 mg/kg",19.7 min
same,half-life,"in vivo; T1/2, co-administered with SN30000 1.86 mg/kg i.p.",14.1 min
same,half-life,"in vivo; T1/2, co-administered with SN30000 18.6 mg/kg i.p.",13.1 min
same,half-life,"in vivo; T1/2, co-administered with SN30000 92.8 mg/kg i.p.",24.6 min
same,half-life,"in vivo; T1/2, co-administered with SN30000 186 mg/kg i.p.",26.9 min
"Nc1n[n+]([O-])c2ccccc2[n+]1[O-] [TPZ, tirapazamine, reference compound]",MTD,NIH-III mice [3],31.7 mg/kg
same,Initial rate of temperature loss (rectum),"NIH-III mice [4]; i.p. SN30000 186 mg/kg, TPZ 31.7 mg/kg, M14 135 mg/kg",0.33 °C/min
same,Effect on core body temperature,"NIH-III mice [4]; i.p. dosing at MTD, compared with SN30000",induced hypothermia
same,Effect on oxygen consumption rate (OCR),SiHa cells,increased
